Here are results for 22 molecules from patent publication US9403815B2, “Compounds and uses thereof in modulating levels of various amyloid beta peptide alloforms” (The Regents of the University of California, priority 2010, dated 2016).

The subject of data set [1] is Aβ42. Nature of the data set: Sandwich ELISA for inhibition of Aβ42 secreted by SH-SY5Y-APP cells. The class given is cell-based. To be noted: Homo sapiens. The method, then: (§1) The SH-SY5Y-APP human cell line was derived by transfecting a human neuroblastoma (SH-SY5Y) cell line with a plasmid expressing wild type human APP751 cDNA and selecting for stable expression of human APP and human Aβ. In each case, the levels of Aβ42 or Aβtotal or Aβ38 peptides secreted into the media of these cells were measured using either two-site monoclonal antibody (mAb)-based sandwich ELISA assays (described below for Aβ42 and Aβtotal) or in the case of Aβ38 EC50's, using either the Meso Scale Aβ38, 40, 42 triplex kit along with the Meso Scale Sector Imager 6000 according to the manufacturer's protocols. This SH-SY5Y-APP human cell line was used for all cell-based Aβ peptide immunochemical assays.
(§2) SH-SY5Y-APP cells were plated at 75,000 cells/well in 96-well tissue culture plates. After 16-18 h, the culture medium was replaced with fresh medium containing either compound or vehicle. Replicates of 3 wells per test concentration were used, with 10 concentrations at ½ log step intervals. Vehicle (0.12% DMSO) is included as a control.
The Sandwich ELISA Assay for Measuring Inhibition of Aβ42 and Determination of Aβ42 IC50 Inhibition Values
An Anti-Aβ35-42 coating monoclonal antibody which is specific for the Aβ42 peptide, stored in 60 μl aliquots at −80° C. (thaw once and discard after use).
An Anti-Aβ1-12 alkaline phosphatase-conjugated monoclonal antibody, stored at 4° C.
Anti-Aβ35-42 monoclonal antibody was diluted 1/300 in 1×TBS. After vortexing, pipette 100 μl of antibody into each well of microplate. The antibody covered the entire bottom of each well. Each microplate was covered with a plate sealer and placed at 4° C. for 19 h.
Microplates were removed from the cold room, the coating monoclonal antibody were aspirated off from all wells. Each well was rinsed once with 200 μl TBS^2. The wells were blocked by pipetting 200 μl of 1% BSA/TBS blocking solution per well and the plates incubated at room temperature for 60 minutes on a laboratory benchtop.
Sample addition to plates: Directly following the 60 min block step, blocking buffer was aspirated off and 50 μl of sample was pipetted to each well and then standard curve samples (50 μl) were added in duplicate to top 2 rows.
The plates were incubated at room temperature for 2 h.
Anti-Aβ1-12 mAb-alkaline phosphatase conjugate was diluted 1/10,000 in 1% BSA/TBS/0.1% Tween-20 and vortexed. 50 μl was pipetted into each well of the microplate.
To all plates, 50 μl of CDP-Star (Sapphire) luminescence substrate (brought to room temperature prior to use) was added to each well and incubated for 15 min at room temperature in the dark. The timer was started after finishing adding the substrate to the first plate of the group. This step was done with a group of 5 plates or less.
Each microplate was read in a Glow Runner luminometer^3.
Data Analysis (Apply to Both Aβ42 and Aβtotal Sandwich ELISA Assays):
A. Calculations • 1. Average the sample values and calculate the SD (standard deviation) and % CV (all datapoints must be <30%). If not, determine if one well is an outlier by using the Grubbs test (Graphpad website). • 2. Convert sample values to pg/well using the linear fit of the standard curve. Footnotes (Apply to Both Aβ42 and Aβtotal Sandwich ELISA Assays)

The test system of data set [2] is Aβtotal. Nature of the data set: Sandwich ELISA for total Aβ peptides secreted by SH-SY5Y-APP cells. The class given is cell-based, human. As for the experimental part:
as §1, §2
The Sandwich ELISA ASSAY for Measuring Inhibition of Total Aβ Peptides and Determination of Aβtotal Peptides IC50 Inhibition Values
Anti-Aβ1-12 monoclonal antibody was diluted 1/100 in 1×TBS. Vortex. 100 μl was pipetted into each well of a microplate. The coating monoclonal antibody covered the entire bottom of each well. Each microplate was covered with a plate sealer and placed in the refrigerator overnight.
Microplates were removed from the refrigerator and each well was rinsed with 200 μl TBS. The wells were blocked by pipetting 200 μl 1% BSA/TBS per well of each microplate. The microplates were incubated at room temperature for 60 minutes.
50 μl of sample was pipetted at the appropriate dilution into designated wells of the microplates. The microplates were incubated at room temperature for 2 hrs.
The biotinylated monoclonal antibody (anti-human Amyloid Beta Protein, Clone 4G8) was diluted 1/5000 in 1% BSA/TBS/0.1% Tween-20. After vortexing, 50 μl was pipetted into each well of each microplate. The microplates were incubated at room temperature on a laboratory bench top for 1 hour.
Alkaline Phosphatase Conjugated Streptavidin was diluted 1/10,000 in 1% BSA/TBS/0.1% Tween-20. Vortex. 50 μl was pipetted into each well of microplate. The microplates were incubated at room temperature on bench top for 1 h.
After finishing washing the microplates (≦5 microplates per assay), 50 μl of CSPD-Sapphire luminescence substrate (brought room temperature prior to use) was added to each well and the wells were incubated for 15 minutes at room temperature in the dark. The timer was started after finishing of the adding of the substrate solution to the first plate of the group of microplates. […]
Plates were read in a Glow Runner luminometer. […]

In data set [3] the test system is Aβ38. Nature of the data set: Meso Scale Aβ38, 40, 42 triplex assay for potentiation of Aβ38 in SH-SY5Y-APP cells. The class given is cell-based. To be noted: Homo sapiens, Meso Scale triplex kit. As for the experimental part: as §1, §2
Data set [4] can be described thus: Solubility at pH 6.6 and pH 7.4. In kind it is physicochemical.
The subject of data set [5] is NOTCH. The data set can be described thus: Western blot of NOTCH proteolysis (NICD production) in H4-APP751 cells transfected with NδED. The class given is cell-based, human. To be noted: 500 nM, 24 hrs. As for the experimental part: Stable H4 human neuroglioma cells over-expressing human APP751 (H4-APP751 cells), were transfected with the NδED construct (Lanes 1-6), and then treated with vehicle (DMSO; Lanes 1-2 Control), 500 nM GSM41 (test compound), or 500 nM DAPT (Lanes 5-6 inhibitor of gamma secretase) for another 24 hrs. Additionally H4-APP751 cells were transfected with the NICD construct (as a reference of NICD; Lanes 7-8). Cells were harvested 48 hrs post transfection and subjected to Western blotting analysis. Myc antibody was utilized to assess the NδED and NICD tagged with Myc on their N-termini. β-Actin was utilized as the loading control.

[6] abbreviates: pH 6.6, aqueous buffer, pH6.6, read-out: Solubility (μM) pH6.6.

In brackets after ≈: the same amount, converted by molar mass. Read-outs that look alike come from different tables or passages of the source.

In data set [1], `Cc1cn(-c2ccc(-c3csc(Nc4cc(C(C)(C)C)nn4C)n3)cc2)cn1` [Compound 27] displayed an IC50 of 250 to 500 nM. The “Total Aβ” value in data set [2] was “No Change”.
For `Cc1cn(-c2ccc(-c3csc(Nc4cc(C(C)(C)C)nn4C)n3)cc2F)cn1` [Compound 28], in data set [1], the IC50 lay in the range of 100 to 250 nM.
As to `COc1cc(-c2csc(Nc3cc(C(C)(C)C)nn3C)n2)ccc1-n1cnc(C)c1` [Compound 29], the IC50 in data set [1] fell in the range of 100 to 250 nM.
In data set [1], `Cc1cn(-c2ccc(-c3csc(Nc4cc(C(C)(C)C)nn4C)n3)cn2)cn1` [Compound 30] registered an IC50 above 500 nM.
For the molecule `Cc1cn(-c2ccc(-c3csc(Nc4c5c(nn4C)CCCC5)n3)cc2)cn1` [Compound 31], the IC50 in data set [1] fell in the range of 100 to 250 nM. Also, the “Total Aβ” value in data set [2] was “No Change”.
In turn, `Cc1cn(-c2ccc(-c3csc(Nc4c5c(nn4C)CCCC5)n3)cc2F)cn1` [Compound 32] yielded a half-inhibitory concentration (IC50) in data set [1] of 100 to 250 nM.
In the case of `COc1cc(-c2csc(Nc3c4c(nn3C)CCCC4)n2)ccc1-n1cnc(C)c1` [Compound 33], the IC50 in data set [1] is 100 to 250 nM.
In the case of `Cc1cn(-c2ccc(-c3csc(Nc4c5c(nn4C)CCCC5)n3)cn2)cn1` [Compound 34], the IC50 in data set [1] was above 500 nM. Also, the “Total Aβ” value in data set [2] was “No Change”.
For the molecule `CCn1nc(C(C)(C)C)cc1Nc1nc(-c2ccc(-n3cnc(C)c3)cc2)cs1` [Compound 35], the IC50 in data set [1] lay within 100 to 250 nM.
In turn, `CCn1nc(C(C)(C)C)cc1Nc1nc(-c2ccc(-n3cnc(C)c3)c(F)c2)cs1` [Compound 36] registered an IC50 in data set [1] below 100 nM. Moreover, the “Total Aβ” value in data set [2] is “No Change”. Also, the EC50 in data set [3] was above 500 nM.
The molecule `CCn1nc(C(C)(C)C)cc1Nc1nc(-c2ccc(-n3cnc(C)c3)c(OC)c2)cs1` [Compound 37] had an IC50 in data set [1] below 100 nM. Moreover, in data set [3], the EC50 is 100 to 250 nM.
Molecule `CCn1nc(C(C)(C)C)cc1Nc1nc(-c2ccc(-n3cnc(C)c3)nc2)cs1` [Compound 38] returned an IC50 in data set [1] of 250 to 500 nM.
The molecule `CCn1nc2c(c1Nc1nc(-c3ccc(-n4cnc(C)c4)cc3)cs1)CCCC2` [Compound 39] gave an IC50 in data set [1] above 500 nM. In addition, in data set [4] (setting [6]), the solubility stood at 2.3 µM (≈ 0.93 µg/mL).
As for `CCn1nc2c(c1Nc1nc(-c3ccc(-n4cnc(C)c4)c(F)c3)cs1)CCCC2` [Compound 40], in data set [1], the IC50 lay in the range of 100 to 250 nM.
The molecule `CCn1nc2c(c1Nc1nc(-c3ccc(-n4cnc(C)c4)c(OC)c3)cs1)CCCC2` [Compound 41] gave an IC50 in data set [1] below 100 nM. Also, the solubility in data set [4] (setting [6]) is 7.9 µM (≈ 3.43 µg/mL); in data set [4] (pH 7.4, aqueous buffer, pH7.4, read-out: Solubility (μM) pH7.4) it was 6.4 µM (≈ 2.78 µg/mL). For the same molecule, in data set [5], the “NICD levels (NOTCH proteolysis) compared to control” value is listed as “did not change NICD levels”. Further, the EC50 in data set [3] is above 500 nM.
Molecule `CCn1nc2c(c1Nc1nc(-c3ccc(-n4cnc(C)c4)nc3)cs1)CCCC2` [Compound 42] showed an IC50 in data set [1] above 500 nM.
As to `COc1cc(-c2csc(Nc3cc(C(C)(C)C)nn3C(C)C)n2)ccc1-n1cnc(C)c1` [Compound 43], the IC50 in data set [1] fell in the range of 100 to 250 nM.
Turning to `CCCn1nc(C(C)(C)C)cc1Nc1nc(-c2ccc(-n3cnc(C)c3)c(OC)c2)cs1` [Compound 45], in data set [1], the IC50 was below 100 nM.
`Cc1cn(-c2ccc(-c3csc(Nc4cc(C(C)(C)C)nn4C(C)C)n3)cc2F)cn1` [Compound 46]: the IC50 in data set [1] was below 100 nM.
In turn, `CCCn1nc(C(C)(C)C)cc1Nc1nc(-c2ccc(-n3cnc(C)c3)c(F)c2)cs1` [Compound 48] showed an IC50 in data set [1] below 100 nM.
In data set [1], `CCn1nc2c(c1Nc1nc(-c3ccc(-n4cnc(C)c4)c(OC)n3)cs1)CCCC2` [Compound 49] returned an IC50 below 100 nM.
For the molecule `C[C@H](NC(=O)Cc1cc(F)cc(F)c1)C(=O)N[C@H](C(=O)OC(C)(C)C)c1ccccc1` [DAPT, reference compound], the “NICD levels (NOTCH proteolysis) compared to control” value in data set [5] is “decreased NICD levels”.
